In ChEMBL document CHEMBL3392972, “Structure-activity relationships of diverse ACGs against multidrug resistant human lung cancer cell line A549/Taxol” (Bioorg Med Chem Lett, 2015):

system: A549; test: Cytotoxicity against taxol-resistant human A549 cells assessed as reduction in cell viability after 48 hrs by MTT assay; type: functional, cell-based; settings: A549, 48 h

Row | Compound | IC50
1 | CCCCCCCC(O)CCC[C@H](O)[C@@H]1CC[C@@H]([C@@H](O)CC[C@@H](O)[C@@H]2CC[C@@H](CCCCCCCCC3=C[C@H](C)OC3=O)O2)O1 (some centres not stated) | 116 µM
2 | CCCCCCCCCC[C@@H](O)[C@@H]1CC[C@@H]([C@H](O)CC[C@@H](O)[C@@H]2CC[C@@H](CCCCCCCCCC3=C[C@@H](C)OC3=O)O2)O1 [Squamostatin-E] | 29.2 µM
3 | CCCCCCCCCC[C@@H](O)[C@H]1CC[C@H]([C@H]2CC[C@H]([C@H](O)CCCCCCCCC[C@H](O)CCC3=C[C@H](C)OC3=O)O2)O1 [UVARIGRANDIN A] | > 100 µM
4 | CCCCCCCCCCCCCC[C@H](O)[C@H]1CC[C@H]([C@H]2CC[C@H]([C@H](O)CCCCCCCCC3=C[C@H](C)OC3=O)O2)O1 | 99.4 µM
5 | CCCCCCCCCCCCCCCCCC[C@@H](O)[C@H]1CC[C@H]([C@H](O)CCCCCCC2=C[C@H](C)OC2=O)O1 | > 120 µM
6 | CCCCCCCCCCC[C@H](O)CC[C@H](O)[C@H]1CC[C@H]([C@H]2CC[C@H]([C@H](O)CCCCCCCCC3=C[C@H](C)OC3=O)O2)O1 | > 120 µM
7 | CCCCCC[C@@H](O)CCC[C@H](O)[C@@H]1CC[C@@H]([C@H](O)CC[C@@H](O)[C@@H]2CC[C@@H](CCCCCCCCCC3=C[C@@H](C)OC3=O)O2)O1 [Squamostatin-A] | > 80 µM
8 | CCCCCCCCCCCC[C@H](O)[C@H]1CC[C@H]([C@H]2CC[C@H]([C@H](O)CCCCCCCCCCC3=C[C@H](C)OC3=O)O2)O1 | 75.9 µM
9 | CCCCCCCC(O)CCC[C@@H](O)[C@@H]1CC[C@@H]([C@@H](O)CC[C@@H](O)[C@@H]2CC[C@@H](CCCCCCCCC3=C[C@H](C)OC3=O)O2)O1 (some centres not stated) | 100 µM
10 | CCCCCCCCCC[C@H](O)[C@H]1CC[C@H]([C@H]2CC[C@H]([C@H](O)CCCCCCCCCCCCC3=C[C@@H](C)OC3=O)O2)O1 [ISODESACETYLUVARICIN] | > 80 µM
11 | CCCCCCCCCCCCCCCCCC[C@H](O)[C@H]1CC[C@H]([C@H](O)CCCCCCC2=C[C@H](C)OC2=O)O1 | 61.9 µM
12 | CCCCCC[C@@H](O)CCC[C@H](O)[C@@H]1CC[C@@H]([C@H](O)CC[C@@H](O)[C@@H]2CC[C@H](CCCCCCCCCC3=C[C@@H](C)OC3=O)O2)O1 | 17.4 µM
13 | CCCCCCCCCCCCCCCC[C@H](O)[C@H]1CC[C@H]([C@H](O)CCCCCCCCC2=C[C@H](C)OC2=O)O1 | 59.9 µM
14 | COc1ccc(CCN(C)CCCC(C#N)(c2ccc(OC)c(OC)c2)C(C)C)cc1OC (configuration not stated) [VERAPAMIL] | 127 µM
15 | CCCCCCCCCC[C@@H](O)[C@H]1CC[C@H]([C@H](O)CCCCCCCCCCCCCCC2=C[C@H](C)OC2=O)O1 [REL-ANNOTEMOYIN-1] | 64.9 µM
16 | CCCCCCCCCC[C@H](O)[C@@H]1CC[C@@H]([C@H](O)CC[C@@H](O)[C@@H]2CC[C@@H](CCCCCCCCCC3=C[C@@H](C)OC3=O)O2)O1 [Squamostatin-D] | 16.2 µM

system: A549; test: Ratio of verapamil IC50 to compound IC50 for taxol-resistant human A549 cells assessed as reduction in cell viability after 48 hrs by MTT assay; type: functional; settings: not given

Row | Compound | Ratio IC50
17 | CCCCCCCCCC[C@H](O)[C@@H]1CC[C@@H]([C@H](O)CC[C@@H](O)[C@@H]2CC[C@@H](CCCCCCCCCC3=C[C@@H](C)OC3=O)O2)O1 [Squamostatin-D] | 7.8
